The numbers were not newly measured in patent US8791150B2, “Pharmaceutical composition for peroral administration of diindolylmethane” (Zakrytoe Aktsionernoe Obschestvo “Veles Farma”, priority 2009, dated 2014), which cites them from elsewhere.

The test system of series [1] is cellular cervical cancer lines. Particulars: one of the three cellular cervical cancer lines studied; cited from earlier work.
Series [2] has as its system normal (untransformed) keratinocytes. As to conditions: in vitro; cited from earlier work.
The test system of series [3] is pathological neoangiogenesis. As to conditions: injected subcutaneously, 5 mg/kg daily; cited from earlier work.

For the compound `OCc1c[nH]c2ccccc12` [Pluronic I3C, indole-3-carbinol], the LD50 in series [1] is 200 µM.
With `c1ccc2c(Cc3c[nH]c4ccccc34)c[nH]c2c1` [DIM, 3,3′-diindolylmethane], in series [2], the “apoptotic changes in normal keratinocytes” value was “did not induce any apoptotic changes”. Besides, the “suppression of pathological neoangiogenesis” value in series [3] is recorded as 74%.
